The structures appear in SMILES notation.

The target in the assay is T1, N-type calcium channel (NTCC) (Homo sapiens, UniProt Q00975).
T1 construct: endogenous in cells; host or cells: differentiated IMR32 cells (ATCC)
T1 sequence (Q00975 whole entry): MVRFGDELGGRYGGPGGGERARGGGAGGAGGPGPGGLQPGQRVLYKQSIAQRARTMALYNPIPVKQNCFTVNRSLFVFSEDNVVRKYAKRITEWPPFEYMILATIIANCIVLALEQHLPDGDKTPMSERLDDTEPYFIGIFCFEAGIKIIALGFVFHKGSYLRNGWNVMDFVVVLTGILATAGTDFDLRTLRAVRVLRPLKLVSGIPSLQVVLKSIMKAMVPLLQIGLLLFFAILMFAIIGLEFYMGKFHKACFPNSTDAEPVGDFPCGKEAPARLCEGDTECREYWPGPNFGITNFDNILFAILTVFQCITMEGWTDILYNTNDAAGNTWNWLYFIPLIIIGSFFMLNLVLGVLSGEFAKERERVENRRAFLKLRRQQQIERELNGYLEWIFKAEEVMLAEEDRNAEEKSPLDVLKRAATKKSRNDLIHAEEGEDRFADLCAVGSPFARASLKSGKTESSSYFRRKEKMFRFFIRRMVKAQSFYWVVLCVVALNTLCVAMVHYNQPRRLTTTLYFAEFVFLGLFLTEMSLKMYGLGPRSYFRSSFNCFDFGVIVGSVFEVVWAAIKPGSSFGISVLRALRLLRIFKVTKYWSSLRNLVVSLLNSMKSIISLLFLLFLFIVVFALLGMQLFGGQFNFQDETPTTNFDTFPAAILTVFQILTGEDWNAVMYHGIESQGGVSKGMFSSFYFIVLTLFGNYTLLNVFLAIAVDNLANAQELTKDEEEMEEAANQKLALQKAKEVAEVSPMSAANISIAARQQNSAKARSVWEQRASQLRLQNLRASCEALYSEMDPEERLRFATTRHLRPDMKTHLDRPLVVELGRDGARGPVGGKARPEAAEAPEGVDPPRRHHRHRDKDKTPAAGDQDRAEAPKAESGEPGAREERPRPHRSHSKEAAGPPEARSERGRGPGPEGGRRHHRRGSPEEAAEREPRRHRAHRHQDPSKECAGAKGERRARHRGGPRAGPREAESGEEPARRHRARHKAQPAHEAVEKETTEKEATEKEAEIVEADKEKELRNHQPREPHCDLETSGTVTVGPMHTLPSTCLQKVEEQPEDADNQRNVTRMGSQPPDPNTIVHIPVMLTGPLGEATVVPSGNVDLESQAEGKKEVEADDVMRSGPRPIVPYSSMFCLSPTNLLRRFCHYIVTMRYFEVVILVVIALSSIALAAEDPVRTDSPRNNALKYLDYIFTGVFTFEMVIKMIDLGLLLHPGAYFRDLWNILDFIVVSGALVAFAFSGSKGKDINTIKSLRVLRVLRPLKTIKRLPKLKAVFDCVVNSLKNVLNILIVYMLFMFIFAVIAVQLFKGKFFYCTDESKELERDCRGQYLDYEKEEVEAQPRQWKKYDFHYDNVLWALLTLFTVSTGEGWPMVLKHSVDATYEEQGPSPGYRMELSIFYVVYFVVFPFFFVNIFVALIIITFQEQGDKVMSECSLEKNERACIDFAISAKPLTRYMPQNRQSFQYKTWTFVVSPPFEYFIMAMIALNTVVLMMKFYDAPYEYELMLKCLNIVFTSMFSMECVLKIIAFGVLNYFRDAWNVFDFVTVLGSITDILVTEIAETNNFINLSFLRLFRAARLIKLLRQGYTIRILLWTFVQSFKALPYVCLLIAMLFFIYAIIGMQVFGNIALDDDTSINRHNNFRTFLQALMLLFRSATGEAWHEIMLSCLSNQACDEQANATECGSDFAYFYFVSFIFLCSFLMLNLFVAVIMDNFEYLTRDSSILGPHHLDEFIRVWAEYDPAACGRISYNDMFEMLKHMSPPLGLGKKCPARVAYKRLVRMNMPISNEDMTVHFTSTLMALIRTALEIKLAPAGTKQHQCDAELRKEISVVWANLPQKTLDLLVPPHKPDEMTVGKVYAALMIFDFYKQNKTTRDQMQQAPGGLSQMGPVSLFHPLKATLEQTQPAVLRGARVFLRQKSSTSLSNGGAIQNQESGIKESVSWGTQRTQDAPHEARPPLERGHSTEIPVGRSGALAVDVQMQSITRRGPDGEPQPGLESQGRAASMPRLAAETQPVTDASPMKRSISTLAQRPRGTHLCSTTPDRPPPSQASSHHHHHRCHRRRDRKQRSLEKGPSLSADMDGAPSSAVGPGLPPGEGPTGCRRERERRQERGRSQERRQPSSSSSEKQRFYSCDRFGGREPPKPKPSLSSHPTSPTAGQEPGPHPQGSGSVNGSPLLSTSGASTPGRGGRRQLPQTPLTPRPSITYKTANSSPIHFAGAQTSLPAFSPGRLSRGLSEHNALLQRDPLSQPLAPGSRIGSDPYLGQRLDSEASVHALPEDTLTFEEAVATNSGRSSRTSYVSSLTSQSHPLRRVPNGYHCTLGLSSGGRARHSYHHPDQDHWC
T1 sequence (P54289 25-956 partner limits assumed): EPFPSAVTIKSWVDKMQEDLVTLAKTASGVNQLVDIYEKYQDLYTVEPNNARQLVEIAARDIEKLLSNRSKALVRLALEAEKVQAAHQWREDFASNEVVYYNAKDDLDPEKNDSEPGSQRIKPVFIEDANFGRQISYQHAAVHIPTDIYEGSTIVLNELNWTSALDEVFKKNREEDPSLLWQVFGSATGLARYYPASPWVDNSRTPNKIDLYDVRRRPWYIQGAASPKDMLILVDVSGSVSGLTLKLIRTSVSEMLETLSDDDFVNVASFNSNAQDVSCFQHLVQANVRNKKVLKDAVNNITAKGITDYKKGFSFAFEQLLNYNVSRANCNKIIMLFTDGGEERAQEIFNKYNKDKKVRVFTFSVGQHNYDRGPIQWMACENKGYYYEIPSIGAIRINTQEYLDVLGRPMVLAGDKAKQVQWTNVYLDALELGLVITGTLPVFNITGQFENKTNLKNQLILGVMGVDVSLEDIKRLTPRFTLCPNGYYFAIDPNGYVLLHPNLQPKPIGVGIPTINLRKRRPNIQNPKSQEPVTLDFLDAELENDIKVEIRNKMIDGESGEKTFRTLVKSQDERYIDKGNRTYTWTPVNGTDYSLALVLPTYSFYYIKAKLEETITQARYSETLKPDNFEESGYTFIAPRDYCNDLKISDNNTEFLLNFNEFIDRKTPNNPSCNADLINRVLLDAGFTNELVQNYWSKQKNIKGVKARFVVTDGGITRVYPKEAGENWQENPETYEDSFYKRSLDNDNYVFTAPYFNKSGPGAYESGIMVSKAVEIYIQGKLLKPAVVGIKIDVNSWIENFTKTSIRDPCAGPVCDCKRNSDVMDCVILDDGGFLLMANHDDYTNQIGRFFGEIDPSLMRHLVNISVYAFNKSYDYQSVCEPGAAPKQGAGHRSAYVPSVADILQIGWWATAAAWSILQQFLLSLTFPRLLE
T1 sequence (P54289 957-1103 partner limits assumed): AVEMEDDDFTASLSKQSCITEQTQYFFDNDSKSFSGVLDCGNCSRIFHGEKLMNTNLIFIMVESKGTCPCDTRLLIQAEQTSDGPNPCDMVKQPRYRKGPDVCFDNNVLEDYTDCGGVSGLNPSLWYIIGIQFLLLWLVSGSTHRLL
T1 sequence (P54284 whole entry partner): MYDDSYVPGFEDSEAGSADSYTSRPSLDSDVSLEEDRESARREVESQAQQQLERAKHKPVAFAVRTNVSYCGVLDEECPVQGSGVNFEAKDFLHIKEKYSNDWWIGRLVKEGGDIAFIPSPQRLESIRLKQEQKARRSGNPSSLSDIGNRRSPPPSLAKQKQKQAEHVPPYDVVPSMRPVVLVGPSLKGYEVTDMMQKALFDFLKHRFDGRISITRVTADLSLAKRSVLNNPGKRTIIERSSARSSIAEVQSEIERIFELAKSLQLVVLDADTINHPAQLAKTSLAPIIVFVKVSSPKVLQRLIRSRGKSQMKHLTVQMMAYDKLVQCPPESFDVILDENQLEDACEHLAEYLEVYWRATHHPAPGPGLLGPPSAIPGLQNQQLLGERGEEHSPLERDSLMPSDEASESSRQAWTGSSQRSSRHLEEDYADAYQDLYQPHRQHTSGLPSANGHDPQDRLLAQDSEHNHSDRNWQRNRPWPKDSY
Kind of assay: FLIPR calcium mobilization assay for N-type calcium channel. It is filed as cell-based. As to conditions: calcium mobilization in vitro assay; differentiated IMR32 cells, 90 mM KCl, 5 μM nitrendipine, Fluo-4. Here is the method: Cell maintenance and differentiation. Unless noted otherwise, cell culture reagents were purchased from Mediatech of Herndon, Md. IMR32 cells (American Type Culture Collection, ATCC, Manassas, Va.) were routinely cultured in growth medium consisting of minimum essential medium containing 10% fetal bovine serum (FBS, Hyclone, Logan, Utah), 100 U/mL penicillin, 100 μg/mL streptomycin, 2 mM L-glutamine, 1 mM sodium pyruvate, and 1×MEM non-essential amino acids. 80-90% confluent flasks of cells were differentiated using the following differentiation medium: Growth medium plus 1 mM dibutyryl cyclic AMP (Sigma, St. Louis, Mo.), and 2.5 μM bromodeoxyuridine (Sigma). Cells were differentiated for 8 days by replacing differentiation medium every 2-3 days. A7r5 (ATCC) cells were maintained and routinely cultured in A7r5 growth medium consisting of Dulbecco's Modified Eagles Medium containing 10% FBS, 100 U/mL penicillin, 100 μg/mL streptomycin, 4 mM L-glutamine, and 0.15% sodium bicarbonate. 80-90% confluent flasks of cells were differentiated using the following differentiation medium: A7r5 Growth Medium plus 1 mM dibutyryl cyclic AMP (Sigma). Cells were differentiated for 8 days by replacing differentiation medium every 2-3 days.
Recombinant human embryonal kidney cells (HEK293, ATCC) stably transfected with either N-type calcium channel (NTCC) subunits (α1b, α2δ, and β3) or L-type calcium channel (LTCC) subunits (α1c, α2δ, and β1) were routinely cultured in growth medium consisting of Dulbecco's Modified Eagles Medium containing 10% FBS, 100 U/mL penicillin, 100 μg/mL streptomycin, 4 mM L-glutamine, 500 μg/mL geneticin (G418), 20 μg/mL Blasticidin S (InVivogen, San Diego, Calif.) and 500 μg/mL zeocin (InVivogen). FLIPR Calcium Mobilization Assay for N-type Calcium Channel. One day prior to performing this assay, differentiated IMR32 cells were treated with lx CellStripper, and seeded on poly-D-lysine-coated 96-well clear-bottom black plates (Becton Dickinson, Franklin Lakes, N.J.) at 200,000 cells/well. On the day of the assay, the cell plates were washed with IMR32 buffer (127 mM NaCl, 1 mM KCl, 2 mM MgCl2, 700 μM NaH2PO4, 5 mM CaCl2, 5 mM NaHCO3, 8 mM HEPES, 10 mM glucose, pH 7.4), then pre-stimulated with KCl and loaded as follows: 0.05 mL of IMR32 buffer, 0.05 mL of each compound tested diluted in IMR32 buffer containing 20 μM nitrendipine (Sigma), and 0.1 mL KCl dissolved in IMR32 buffer, plus Fluo-4 were added (3 μM final concentration, Molecular Probes, Eugene, Oreg.). Final test compound concentrations ranged from about 846 pM to about 17 μM, final nitrendipine concentration was 5 μM, and final KCl concentration was 90 mM. After 1 hour, the cells were washed twice with 0.05 mL of each compound tested in nitrendipine-containing IMR32 buffer (no KCl or Fluo-4), and then replaced with 0.1 mL of each compound tested in nitrendipine-containing IMR32 buffer. Plates were then transferred to a Fluorimetric Imaging Plate Reader (FLIPR^96, Molecular Devices, Inc., Sunnyvale, Calif.) for assay. The FLIPR measured basal Fluo-4 fluorescence for 315 seconds (i.e., 5 minutes and 15 seconds), then added 0.1 mL KCl agonist dissolved in IMR32 buffer and measured fluorescence for another 45 seconds. Final test compound concentrations on the cells after FLIPR read ranged from about 846 pM to about 17 μM, final nitrendipine concentration was 5 μM, and final KCl concentration was 90 mM. Data were collected over the entire time course and analyzed using Excel, Graph Pad Prism (version 3.02, Graph Pad, San Diego, Calif.), or an in-house non-linear regression analysis software.
(In general: Calcium assays in cells follow changes in intracellular calcium, usually with a dye or a luminescent sensor.)
`O=C(NCCOc1ccc(F)cc1)NOC1CCN(S(=O)(=O)c2cccc(C(F)(F)F)c2)CC1` [Example 31, 1-(2-(4-Fluorophenoxy)ethyl)-3-(1-(3-(trifluoromethyl)phenylsulfonyl)piperidin-4-yloxy)urea]: the IC50 is 154 nM.

On to `O=C(NO[C@H]1CCN(S(=O)(=O)c2cccc(C(F)(F)F)c2)C1)c1ccc(F)cc1` [Example 16, (S)-4-Fluoro-N-(1-(3-(trifluoromethyl)phenylsulfonyl)pyrrolidin-3-yloxy)benzamide], for which the IC50 is 1220 nM.

As to `O=C(NOC1CCN(S(=O)(=O)c2ccc(OC(F)(F)F)cc2)CC1)NC1CCC1` [Example 55, 1-Cyclobutyl-3-(1-(4-(trifluoromethoxy)phenylsulfonyl)piperidin-4-yloxy)urea], the half-maximal inhibitory concentration (IC50) turned out to be 290 nM.

`N#Cc1cccc(C(=O)NOC2CCN(S(=O)(=O)c3cccc(C(F)(F)F)c3)CC2)c1` [Example 7, 3-Cyano-N-(1-(3-(trifluoromethyl)phenylsulfonyl)piperidin-4-yloxy)benzamide]: the IC50 came out at 575 nM.

Turning to `O=C(NO[C@H]1CCN(S(=O)(=O)c2cccc(C(F)(F)F)c2)C1)Nc1cc(C(F)(F)F)cc(C(F)(F)F)c1` [Example 86, (S)-1-(3,5-Bis(trifluoromethyl)phenyl)-3-(1-(3-(trifluoromethyl)phenylsulfonyl)pyrrolidin-3-yloxy)urea], the half-inhibitory concentration (IC50) amounted to 705 nM.

As to `CN(C(=O)NOC1CCN(S(=O)(=O)c2cccc(C(F)(F)F)c2)CC1)c1ccc(F)cc1` [Example 32, 1-(4-Fluorophenyl)-1-methyl-3-(1-(3-(trifluoromethyl)phenylsulfonyl)piperidin-4-yloxy)urea], the half-inhibitory concentration (IC50) was found to be 560 nM.

In the case of `O=C(NCCC(F)(F)F)NOC1CCN(S(=O)(=O)c2ccc(OC(F)(F)F)cc2)CC1` [Example 67, 1-(1-(4-(Trifluoromethoxy)phenylsulfonyl)piperidin-4-yloxy)-3-(3,3,3-trifluoropropyl)urea], the 50% inhibitory concentration (IC50) was 1490 nM.

Consider `O=C(NOC1CCN(C(c2ccc(F)cc2)c2ccc(F)cc2)CC1)Nc1ccc(F)cc1` [Example 106, 1-(1-(Bis(4-fluorophenyl)methyl)piperidin-4-yloxy)-3-(4-fluorophenyl)urea], for which the 50% inhibitory concentration (IC50) turned out to be 2580 nM.

With `O=C(NOC1CCN(S(=O)(=O)c2cccc(C(F)(F)F)c2)CC1)C(c1ccccc1)c1ccccc1` [Example 9, 2,2-Diphenyl-N-(1-(3-(trifluoromethyl)phenylsulfonyl)piperidin-4-yloxy)acetamide], the concentration for half-maximal inhibition (IC50) was found to be 218 nM.

For `O=C(CCc1ccc(F)cc1)NOC1CCN(S(=O)(=O)c2cccc(C(F)(F)F)c2)CC1` [Example 5, 3-(4-Fluorophenyl)-N-(1-(3-(trifluoromethyl)phenylsulfonyl)piperidin-4-yloxy)propanamide], the IC50 stood at 102 nM.

One may read the IC50 as the point on the concentration scale where inhibition reaches its midpoint.

The record behind these values is patent publication US8518934B2, “Oxycarbamoyl compounds and the use thereof” (Shonogi & Co., Ltd., priority 2008, dated 2013).
